These are literature values, as cited in PMC8287861 (Frontiers in Microbiology, 2021).

Structures are written as SMILES. Converted amounts (≈) assume the structure as drawn. Where two headings read alike, the source gives them in different places.

Series [1] deals with Pseudomonas aeruginosa. Also noted: method as in Lomovskaya et al. (2021). Particulars: panel reflecting current MIC distribution (N = 500); QPX7728 at 8 μg/ml; ref Lomovskaya et al. (2021).
Series [2] relates to Pseudomonas aeruginosa. Also noted: method as in Lomovskaya et al. (2021). Conditions: ref Lomovskaya et al. (2021); for MIC50 / MIC90: challenge panel, QPX7728 at 8 μg/ml.
Series [3] concerns Enterobacterales producing ESBLs and carbapenemases. Also noted: method as in Rubio-Aparicio et al., 2019. Conditions: ref Rubio-Aparicio et al., 2019.
For series [4], the system named is KPC-producing strains of Klebsiella pneumoniae and blaKPC mutants. Also noted: method as in Nelson et al., 2019. Particulars: ref Nelson et al., 2019.
Series [5] deals with isogenic strains of P. aeruginosa that produced KPC. Also noted: method as in Lomovskaya et al., 2020a. Conditions: ref Lomovskaya et al., 2020a.

What is called MIC50 is an inhibitory concentration at the 50% level, which refers to growth in some studies and to a panel of isolates in others. As a reminder, the MIC90 is the lowest concentration that inhibits either 90% of growth or 90% of the strains tested, depending on the study. As for `Cn1c(N)c(NC(=O)NCCN)c[n+]1CC1=C(C(=O)O)N2C(=O)[C@@H](NC(=O)/C(=N\OC(C)(C)C(=O)[O-])c3nsc(N)n3)[C@H]2SC1` [Ceftolozane, ceftolozane], the MIC50 was 0.5 µg/mL (≈ 0.75 µM) in the series with Pseudomonas aeruginosa [1], 4 µg/mL (≈ 6 µM) with Pseudomonas aeruginosa [2] (All (N = 290)), >64 µg/mL in the series with Pseudomonas aeruginosa [2] (MBL (N = 61)) and 2 µg/mL (≈ 3 µM) in the series on Pseudomonas aeruginosa [2] (No MBL (N = 229)). For the same compound, the MIC90 in the series with Pseudomonas aeruginosa [1] was 4 µg/mL (≈ 6 µM); in the series with Pseudomonas aeruginosa [2] (All (N = 290)), >64 µg/mL; with Pseudomonas aeruginosa [2] (MBL (N = 61)), >64 µg/mL; with Pseudomonas aeruginosa [2] (No MBL (N = 229)), >64 µg/mL.

In the case of `COCC1=C(C(=O)O)N2C(=O)[C@@H](NC(=O)/C(=N\OC)c3csc(N)n3)[C@H]2SC1` [Cefpodoxime], the MIC50 is on record as >64/>64 μg/ml in series [3] (All Enterobacterales (N = 972)); >64/>64 μg/ml in series [3] (CRE KPC (N = 292)); >64/>64 μg/ml in series [3] (CRE MBL (N = 226)); >64/>64 μg/ml in series [3] (CRE OXA-48 (N = 47)); >64/>64 μg/ml in series [3] (ESBLs, no CRE (N = 371)); >64/>64 μg/ml in series [3] (Non-CP CRE). In addition, the MIC90 in series [3] (All Enterobacterales (N = 972)) is >64/>64 μg/ml; in series [3] (CRE KPC (N = 292)), >64/>64 μg/ml; in series [3] (CRE MBL (N = 226)), >64/>64 μg/ml; in series [3] (CRE OXA-48 (N = 47)), >64/>64 μg/ml; in series [3] (ESBLs, no CRE (N = 371)) it was >64/>64 μg/ml; in series [3] (Non-CP CRE), >64/>64 μg/ml.

In general, MIC refers to the least concentration at which growth counts as inhibited. As to `CO/N=C(\C(=O)N[C@@H]1C(=O)N2C(C(=O)[O-])=C(C[N+]3(C)CCCC3)CS[C@H]12)c1csc(N)n1` [Cefepime, cefepime], the MIC50 was 4 µg/mL (≈ 8.32 µM) with Pseudomonas aeruginosa [1], 32 µg/mL (≈ 66.6 µM) with Pseudomonas aeruginosa [2] (All (N = 290)), 64 µg/mL (≈ 133 µM) in the series on Pseudomonas aeruginosa [2] (MBL (N = 61)) and 32 µg/mL (≈ 66.6 µM) in the series with Pseudomonas aeruginosa [2] (No MBL (N = 229)). Moreover, the MIC90 is 32 µg/mL (≈ 66.6 µM) in the series with Pseudomonas aeruginosa [1], 64 µg/mL (≈ 133 µM) in the series with Pseudomonas aeruginosa [2] (All (N = 290)), 64 µg/mL (≈ 133 µM) in the series with Pseudomonas aeruginosa [2] (MBL (N = 61)) and 64 µg/mL (≈ 133 µM) in the series on Pseudomonas aeruginosa [2] (No MBL (N = 229)). Further, the minimal inhibitory concentration (MIC) in series [4] (KP1074, KPC-3, SHV-11, TEM-1/GD) was >128 µg/mL; in series [4] (KP1099, KPC-2, SHV-11, SHV-12, CTX-M-14/GD), >128 µg/mL; in series [4] (KP1102, KPC-3, TEM-1, SHV-11/GD), >128 µg/mL; in series [4] (KP1246, KPC-3, SHV-12, SHV-11/FL), 128 µg/mL (≈ 266 µM); in series [4] (KP1252, KPC-3, TEM-1, SHV-11/FL), >128 µg/mL; in series [4] (KP1317, KPC-3, TEM-1, SHV-11/GD) it was >128 µg/mL. For the same compound, the MIC in series [4] (KP1500, KPC-3, TEM-1, SHV-11, CTX-M-15 OXA-1 OXA-9/IS at −48) is >128 µg/mL; in series [4] (KPM3191, KPC-3:: DDK duplication at aa#831 (KPC-29)), 64 µg/mL (≈ 133 µM); in series [4] (KPM3192, KPC-3:: D179Y (KPC-31)), 32 µg/mL (≈ 66.6 µM); in series [4] (KPM3200, KPC-3::duplication of EAVI (aa#278)), >128 µg/mL; in series [4] (KPM3205, KPC-3 ::duplication of KKDY (aa#273)), 128 µg/mL (≈ 266 µM); in series [4] (KPM3210, KPC-2::D179N) it was 128 µg/mL (≈ 266 µM). The MIC was 128 µg/mL (≈ 266 µM) in series [4] (KPM3212, deletion of ELNSAI at aa#497); >128 µg/mL in series [4] (KPM3213, KPC-2::D179Y (KPC-31), selected from KP1099); 128 µg/mL (≈ 266 µM) in series [4] (KPM3214, KPC-2::D179A); 32 µg/mL (≈ 66.6 µM) in series [4] (KPM3493, KPC-3::duplication of EL at aa#164 (KPC-25)); 128 µg/mL (≈ 266 µM) in series [4] (KPM3494, KPC-3::R167S); >128 µg/mL in series [4] (KPM3495, KPC-3::A175V). Also, the minimum inhibitory concentration (MIC) in series [4] (KPM3511, KPC-3::P174Q) is 64 µg/mL (≈ 133 µM); in series [4] (KPM3512, KPC-3:: P174L), 16 µg/mL (≈ 33.3 µM); in series [4] (KPM3517, KPC-3::D179Y (KPC-31)), >128 µg/mL; in series [4] (KPM3520, Both WT and mutant KPC-3::duplication of 8aa (aa#264–271)) it was >128 µg/mL; in series [4] (KPM3523, Both WT and mutant KPC-3:: deletion of EL (aa#241–242)), 128 µg/mL (≈ 266 µM); in series [4] (KPM3546, KPC-3::R164H), >128 µg/mL. Further, in the series with Pseudomonas aeruginosa [2] (challenge panel (N = 290), with QPX7728, 8 or 16 μg/ml for cefepime and piperacillin, respectively), the “% of isolates shifted by QPX7728 at or below breakpoint” value is on record as 70.3%.

Take `C[C@H]1[C@H](NC(=O)/C(=N\OC(C)(C)C(=O)O)c2csc(N)n2)C(=O)N1S(=O)(=O)O` [Aztreonam, aztreonam]: the MIC50 in the series on Pseudomonas aeruginosa [2] (All (N = 290)), with Pseudomonas aeruginosa [2] (MBL (N = 61)) and in the series with Pseudomonas aeruginosa [2] (No MBL (N = 229)) was 32 µg/mL (≈ 73.5 µM) in each case. Moreover, the MIC90 with Pseudomonas aeruginosa [2] (All (N = 290)), in the series with Pseudomonas aeruginosa [2] (MBL (N = 61)) and with Pseudomonas aeruginosa [2] (No MBL (N = 229)) was >64 µg/mL throughout.

Take `C[C@@H](O)[C@H]1C(=O)N2C(C(=O)O)=C(SC3CN(C4=NCCS4)C3)[C@H](C)[C@H]12` [Tebipenem]: the MIC50 is 0.25 µg/mL (≈ 0.652 µM) in series [3] (All Enterobacterales (N = 972)); 64/>64 μg/ml in series [3] (CRE KPC (N = 292)); 32 µg/mL (≈ 83.4 µM) in series [3] (CRE MBL (N = 226)); 32 µg/mL (≈ 83.4 µM) in series [3] (CRE OXA-48 (N = 47)); ≤ 0.06 µg/mL in series [3] (ESBLs, no CRE (N = 371)); 8 µg/mL (≈ 20.9 µM) in series [3] (Non-CP CRE). For the same compound, the MIC90 was > 64 µg/mL in series [3] (All Enterobacterales (N = 972)); 64/>64 μg/ml in series [3] (CRE KPC (N = 292)); > 64 µg/mL in series [3] (CRE MBL (N = 226)); 64 µg/mL (≈ 167 µM) in series [3] (CRE OXA-48 (N = 47)); 0.5 µg/mL (≈ 1.3 µM) in series [3] (ESBLs, no CRE (N = 371)); 16 µg/mL (≈ 41.7 µM) in series [3] (Non-CP CRE).

For `Nc1nc(/C(=C/CC(=O)O)C(=O)N[C@@H]2C(=O)N3C(C(=O)O)=CCS[C@H]23)cs1` [Ceftibuten], the MIC50 in series [3] (All Enterobacterales (N = 972)) was 32 µg/mL (≈ 78 µM); in series [3] (CRE KPC (N = 292)), 16 µg/mL (≈ 39 µM); in series [3] (CRE MBL (N = 226)) it was >64/>64 μg/ml; in series [3] (CRE OXA-48 (N = 47)), 64/>64 μg/ml; in series [3] (ESBLs, no CRE (N = 371)), 8 µg/mL (≈ 19.5 µM); in series [3] (Non-CP CRE), >64/>64 μg/ml. The MIC90 in series [3] (All Enterobacterales (N = 972)) was > 64 µg/mL; in series [3] (CRE KPC (N = 292)), > 64 µg/mL; in series [3] (CRE MBL (N = 226)), >64/>64 μg/ml; in series [3] (CRE OXA-48 (N = 47)), 64/>64 μg/ml; in series [3] (ESBLs, no CRE (N = 371)), > 64 µg/mL; in series [3] (Non-CP CRE), >64/>64 μg/ml.

With `C[C@@H](O)[C@H]1C(=O)N2C(C(=O)[O-])=C(SC3Cn4cnc[n+]4C3)[C@H](C)[C@H]12` (some centres unmarked) [Biapenem], the “Biapenem MIC” value in series [5] (PAM4126, mexR (MexAB-OprM)) was 64 µg/mL; in series [5] (PAM4129, nfxB (MexCD-OprJ)), 8 µg/mL; in series [5] (PAM4132, mexT (MexEF-OprM)) it was 128 µg/mL; in series [5] (PAM4150, mexZ (MexXY-OprM)), 64 µg/mL; in series [5] (PAM4224, Wild-type) it was 64 µg/mL; in series [5] (PAM4365, MexA::Tet), 64 µg/mL. Besides, the “MIC of the vector only strain” value in series [5] (vector only counterpart of PAM4126, mexR (MexAB-OprM)) was 0.125 µg/mL; in series [5] (vector only counterpart of PAM4129, nfxB (MexCD-OprJ)) it was 0.03 µg/mL; in series [5] (vector only counterpart of PAM4132, mexT (MexEF-OprM)), 0.5 µg/mL; in series [5] (vector only counterpart of PAM4150, mexZ (MexXY-OprM)), 0.25 µg/mL; in series [5] (vector only counterpart of PAM4224, Wild-type), 0.25 µg/mL; in series [5] (vector only counterpart of PAM4365, MexA::Tet), 0.25 µg/mL.
